Measurements published in PMC4301037, “Identification and Structure–Function Analysis of Subfamily Selective G Protein-Coupled Receptor Kinase Inhibitors” (ACS Chemical Biology, 2014).
Where two headings read alike, the source gives them in different places.

Legend:
PKA = target: T1, PKA (Mus musculus, UniProt P05132); assay: PKA inhibition assay (ADP-Glo, CREBtide, 100 μM ATP); format: biochemical
T1 construct: His tag (inferred from pET15b vector and Ni-NTA column) (N); host or cells: E. coli Rosetta(DE3)pLysS

human GRK2S670A = target: T2, human GRK2S670A (Homo sapiens, UniProt P25098, S670A); assay: Primary DSF (differential scanning fluorimetry) inhibitor screen, GRK2; format: binding; conditions: 10 μM compound; for ΔTm, primary screen, GRK2 / ΔTm at 10 µM: 2 μM kinase, relative to DMSO control; for ΔTm at 10 µM: read-out: ΔTm, primary screen, GRK2; for rank in the primary screen, GRK2: rank ordering of compounds in primary DSF screen
T2 construct: when using full-length kinases as the receptor[37] instead of isolated kinase domains; made in house
T2 sequence (P25098 1-689 S670A): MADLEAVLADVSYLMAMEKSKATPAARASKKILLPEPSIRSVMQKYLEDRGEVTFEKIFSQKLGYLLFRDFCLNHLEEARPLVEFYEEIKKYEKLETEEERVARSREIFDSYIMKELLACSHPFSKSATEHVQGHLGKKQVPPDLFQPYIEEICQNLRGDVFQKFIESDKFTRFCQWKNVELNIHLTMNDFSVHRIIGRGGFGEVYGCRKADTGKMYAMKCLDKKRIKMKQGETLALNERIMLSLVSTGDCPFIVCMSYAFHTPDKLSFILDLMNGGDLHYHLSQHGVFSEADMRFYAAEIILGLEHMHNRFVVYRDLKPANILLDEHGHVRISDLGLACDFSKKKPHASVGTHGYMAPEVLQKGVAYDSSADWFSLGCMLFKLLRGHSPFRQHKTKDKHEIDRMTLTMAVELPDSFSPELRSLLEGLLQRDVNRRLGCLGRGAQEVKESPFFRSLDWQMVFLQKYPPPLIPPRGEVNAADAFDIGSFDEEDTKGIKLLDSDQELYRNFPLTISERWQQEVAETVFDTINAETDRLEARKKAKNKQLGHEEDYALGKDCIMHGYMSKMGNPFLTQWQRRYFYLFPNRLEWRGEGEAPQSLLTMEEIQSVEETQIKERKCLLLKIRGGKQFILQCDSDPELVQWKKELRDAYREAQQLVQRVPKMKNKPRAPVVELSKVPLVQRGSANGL

GRK2 [1] = target: T3, GRK2 (Homo sapiens, UniProt P25098, S670A); assay: DSF retest (confirmation), GRK2; format: binding; conditions: for GRK2 Tm: 0.2 mg mL^–1 kinase; for GRK2 ΔTm: relative to intrinsic melting point of the kinase
T3 construct: made in house
T3 sequence (P25098 1-689 S670A): T2 sequence (P25098 1-689 S670A)

GRK5 [2] = target: T4, GRK5 (Bos taurus, UniProt P43249); assay: DSF retest (confirmation), GRK5; format: binding, bovine; conditions: for GRK5 Tm: 0.2 mg mL^–1 kinase; for GRK5 ΔTm: relative to intrinsic melting point of the kinase
T4 construct: when using full-length kinases as the receptor[37] instead of isolated kinase domains; made in house

224 kinases = system: 224 kinases; parameters: method as in ChEMBL database; conditions: ref ChEMBL database; cited from earlier work
GRK2 [3] = target: T5, GRK2 (Bos taurus, UniProt P21146, S670A); assay: In vitro phosphorylation assay (tubulin, 5 μM ATP), GRK2; format: biochemical, bovine; conditions: for IC50: read-out: GRK2 log IC50 (converted)
T5 construct: made in house
T5 sequence (P21146 1-689 S670A): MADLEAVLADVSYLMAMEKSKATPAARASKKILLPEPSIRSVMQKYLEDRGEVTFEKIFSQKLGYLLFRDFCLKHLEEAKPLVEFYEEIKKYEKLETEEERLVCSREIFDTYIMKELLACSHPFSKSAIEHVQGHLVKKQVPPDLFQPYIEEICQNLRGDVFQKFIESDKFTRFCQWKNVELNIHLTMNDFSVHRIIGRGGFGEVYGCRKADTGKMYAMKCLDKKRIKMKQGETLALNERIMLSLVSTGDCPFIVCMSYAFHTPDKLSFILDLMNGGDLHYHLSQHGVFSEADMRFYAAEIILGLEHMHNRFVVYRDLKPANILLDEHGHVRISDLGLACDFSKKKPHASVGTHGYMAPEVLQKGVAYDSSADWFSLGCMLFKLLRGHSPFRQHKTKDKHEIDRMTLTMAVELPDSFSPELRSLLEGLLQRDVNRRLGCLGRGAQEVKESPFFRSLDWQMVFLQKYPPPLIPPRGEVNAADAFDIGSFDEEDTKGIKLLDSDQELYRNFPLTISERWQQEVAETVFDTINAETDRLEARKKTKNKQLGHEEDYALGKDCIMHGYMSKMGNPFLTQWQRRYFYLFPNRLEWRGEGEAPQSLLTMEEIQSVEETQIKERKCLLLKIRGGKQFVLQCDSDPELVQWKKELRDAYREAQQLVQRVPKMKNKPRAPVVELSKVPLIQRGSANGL

GRK1 [4] = target: T6, GRK1 (Bos taurus, UniProt P28327); assay: In vitro phosphorylation assay (tubulin, 5 μM ATP), GRK1; format: biochemical, bovine; conditions: for IC50: read-out: GRK1 log IC50 (converted)
T6 construct: Bovine GRK1_1–535, bovine and human GRK2S670A; made in house
T6 sequence (P28327 1-535): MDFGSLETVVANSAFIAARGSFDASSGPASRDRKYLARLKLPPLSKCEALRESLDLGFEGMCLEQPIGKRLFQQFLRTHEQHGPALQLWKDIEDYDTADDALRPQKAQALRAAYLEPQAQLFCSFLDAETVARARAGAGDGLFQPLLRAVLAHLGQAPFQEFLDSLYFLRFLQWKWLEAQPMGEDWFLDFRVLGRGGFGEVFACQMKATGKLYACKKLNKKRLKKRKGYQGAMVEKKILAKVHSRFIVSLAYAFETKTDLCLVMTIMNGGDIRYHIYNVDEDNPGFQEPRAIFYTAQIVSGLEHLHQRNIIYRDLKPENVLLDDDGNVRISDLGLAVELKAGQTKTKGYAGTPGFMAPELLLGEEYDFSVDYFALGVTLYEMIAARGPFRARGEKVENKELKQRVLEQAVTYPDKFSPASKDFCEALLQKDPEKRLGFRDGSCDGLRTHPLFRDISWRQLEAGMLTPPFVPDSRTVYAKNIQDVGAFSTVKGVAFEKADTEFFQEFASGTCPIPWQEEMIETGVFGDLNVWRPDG

GRK1 [5] = target: T6, GRK1; assay: DSF retest (confirmation), GRK1; format: binding, bovine; conditions: for GRK1 Tm: 0.2 mg mL^–1 kinase; for GRK1 ΔTm: relative to intrinsic melting point of the kinase
GRK1, 2, and 5 and PKA = assay: Ssel selectivity score calculated from inhibition of GRK1, 2, 5 and PKA; conditions: selectivity score from inhibition of GRK1, 2, 5 and PKA; <0.5 selective
protein kinase A (PKA) = target: T7, protein kinase A (PKA) (Mus musculus, UniProt P05132); assay: DSF retest (confirmation), PKA; format: binding; conditions: for PKA Tm: 0.2 mg mL^–1 kinase; for PKA ΔTm: relative to intrinsic melting point of the kinase
T7 construct: His tag (inferred from pET15b vector and Ni-NTA column) (N); host or cells: E. coli Rosetta(DE3)pLysS
Method: Fourteen compounds (Figure 1a–c), including all GRK2 hits except staurosporine, and the most stabilizing pyrrolopyrimidine-containing compounds were obtained from GSK and retested using DSF on GRKs representing each vertebrate subfamily (GRK1, 2, and 5) (Table 1). […] The ability of these compounds to shift the Tm of the related AGC family kinase member protein kinase A (PKA) was also assessed (Table 1). In no case was ΔTm greater for PKA than for one of the tested GRKs. […]. There was no correlation for GRK1 (Figure 2c).
DSF was conducted using a ThermoFluor plate reader (Johnson & Johnson) in a buffer containing 20 mM HEPES, pH 7.0, 5 mM MgCl2, 2 mM DTT, and 1 mM CHAPS with 0.2 mg mL^–1 final concentration of GRK or PKA and 100 μM 1-anilinonaphthalene-8-sulfonic acid.[14]

GRK5 [6] = target: T4, GRK5; assay: In vitro phosphorylation assay (tubulin, 5 μM ATP), GRK5; format: biochemical, bovine; conditions: for IC50: read-out: GRK5 log IC50 (converted)
bovine GRK5 = target: T8, bovine GRK5 (Bos taurus, UniProt P43249); assay: Primary DSF inhibitor screen, GRK5; format: binding
T8 construct: when using full-length kinases as the receptor[37] instead of isolated kinase domains; made in house

ROCK1 = conditions: relative to GSK180736A (substitution effect); cited from earlier work
[7] = logarithm of IC50 (−3.3 corresponds to 0.5 mM, footnote c), 438 nM PKA, 100 μM ATP, CREBtide, read-out: PKA log IC50 (converted)
[8] = 10 μM compound, 2 μM kinase, relative to DMSO control, read-out: ΔTm, primary screen, GRK5

T8 sequence (P43249 whole entry, the tested form may be a part): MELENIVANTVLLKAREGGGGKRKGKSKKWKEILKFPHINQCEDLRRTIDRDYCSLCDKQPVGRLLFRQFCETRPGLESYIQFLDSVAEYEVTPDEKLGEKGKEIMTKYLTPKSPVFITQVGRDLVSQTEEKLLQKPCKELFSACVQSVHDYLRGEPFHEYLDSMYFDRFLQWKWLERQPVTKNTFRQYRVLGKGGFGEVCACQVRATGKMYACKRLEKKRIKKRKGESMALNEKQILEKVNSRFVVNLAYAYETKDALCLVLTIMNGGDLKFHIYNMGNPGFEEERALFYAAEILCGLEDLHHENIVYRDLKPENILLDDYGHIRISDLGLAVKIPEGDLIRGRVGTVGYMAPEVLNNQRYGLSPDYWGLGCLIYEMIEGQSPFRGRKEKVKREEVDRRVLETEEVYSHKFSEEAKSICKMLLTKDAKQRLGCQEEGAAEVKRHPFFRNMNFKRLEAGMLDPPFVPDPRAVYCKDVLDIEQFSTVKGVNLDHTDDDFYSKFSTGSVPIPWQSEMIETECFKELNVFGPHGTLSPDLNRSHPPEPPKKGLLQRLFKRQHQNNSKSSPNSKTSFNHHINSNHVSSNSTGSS
T4 sequence (P43249 whole entry, the tested form may be a part): as above

Row | SMILES | IC50 (PKA; [7]) [µM] | ΔTm, primary screen, GRK2 (human GRK2S670A) [°C] | ΔTm at 10 µM (human GRK2S670A) [°C] | rank in the primary screen, GRK2 (human GRK2S670A) | GRK2 Tm (GRK2 [1]) [°C] | GRK2 ΔTm (GRK2 [1]) | GRK5 Tm (GRK5 [2]) [°C] | GRK5 ΔTm (GRK5 [2]) [°C] | inhibition pattern in kinase cross-screening, in words (224 kinases) | IC50 (GRK2 [3]) [µM] | GRK2 fold (increase in potency relative to paroxetine) (GRK2 [3]) [fold] | IC50 (GRK1 [4]) [µM] | GRK1 fold (increase in potency relative to paroxetine) (GRK1 [4]) [fold] | GRK1 Tm (GRK1 [5]) [°C] | GRK1 ΔTm (GRK1 [5]) [°C] | Ssel (GRK1, 2, and 5 and PKA) | PKA Tm (protein kinase A (PKA)) [°C] | PKA ΔTm (protein kinase A (PKA)) [°C] | IC50 (GRK5 [6]) [µM] | GRK5 fold (increase in potency relative to paroxetine) (GRK5 [6]) [fold] | also measured
1 | CCn1c(-c2nonc2N)nc2c(C#CC(C)(C)O)nc(O[C@@H](CN)c3ccccc3)cc21 [GSK1007102B] | 0.501 | 5.4 | 5.41 | 1 | 49.3 | 11.8 °C | 28.7 | 2.0 | strong inhibition of many of the 221 kinases evaluated | 1 | 1.3 | 63.1 | 6 | 26.7 | 6.8 | 0.917 | 52.2 | 6.8 | 3.16 | 40 | IC50 against PKA, in words (PKA): nanomolar; ΔTm at 10 µM (bovine GRK5; [8]): 3.43 °C
2 | CC1=C(C(=O)Nc2ccc3[nH]ncc3c2)C(c2ccc3ccccc3c2)CC(=O)N1 (stereo not shown) [GSK270822A] | 50.1 | 3.8 | 3.82 | 5 | 47.8 | 10.3 °C | 29.4 | 2.6 |  |  | 0.10 |  | 1 | 24.6 | 4.7 | 0.883 | 51.9 | 6.5 |  | 2.0 | IC50 (PKA; read-out: IC50 against PKA): < 100 µM; increase in potency of ROCK inhibition (ROCK1): 5 fold; ΔTm at 10 µM (bovine GRK5; [8]): 3.92 °C
3 | CN(c1ccc(NC(=O)Nc2ccc(OC(F)(F)F)cc2)cc1)c1ccnc(Nc2cccc(S(N)(=O)=O)c2)n1 [GW806742X] | > 501 |  |  |  | 36.4 | –1.1 °C | 27.1 | 0.4 | strong inhibition of many of the 221 kinases evaluated | > 1000 |  | > 1000 |  | 20.3 | 0.4 | 1.386 | 45.6 | 0.2 | > 1000 |  | ΔTm, primary screen, GRK5 (bovine GRK5; 10 μM compound, 2 μM kinase, relative to DMSO control): 6.5 °C; rank in the primary screen, GRK5 (bovine GRK5; rank ordering of compounds in primary DSF screen, 10 μM compound): 16; ΔTm at 10 µM (bovine GRK5; read-out: ΔTm, primary screen, GRK5, 10 μM compound, 2 μM kinase, relative to DMSO control): 6.48 °C
